# According to patent US20260102413A1, “TREATING PAIN ASSOCIATED WITH CENTRAL SENSITIZATION” (Medicon Pharmaceuticals, Inc., priority 2022, published 2026):
# Experiments:
# Format in all cases: in vivo, mouse
# [1] = test system: mice with paclitaxel-induced CIPN; experiment: thermal allodynia (paw withdrawal latency, radiant heat), paclitaxel CIPN model; conditions: oral PS 50 mg/kg, sulindac 33 mg/kg 3x/day, day 16 of treatment
# Method: Group 3: paclitaxel pluse sulindac (n=8)
# Thermal allodynia was also determined for the mice study groups below (with 8 mice per group): • 1. Group 1: naïve mice (i.e. no paclitaxel) • 2. Group 2: paclitaxel only • 3. Group 3: paclitaxel plus vehicle • 4. Group 4: paclitaxel plus NO-sulindace • 5. Group 5: paclitaxel plus thiol-sulindac
# [2] = test system: mice with chronic constriction injury (PTPN); experiment: von Frey PWT, CCI model of PTPN, orally administered compounds; conditions: oral once a day: PS 50, PSA 50, sulindac 33 mg/kg
# Method: Phospho-ibuprofen (PI) (Formula III), phospho-ibuprofen-amide (PIA) (Formula XI), ibuprofen and vehicle control were all administered orally, three times a day for 14 days. Their doses were as follows: PI 80 mg/kg, PIA 80 mg/kg, ibuprofen 40 mg/kg (all three are equimolar). […] Group 1: vehicle (n=5-8) • 2. Group 2: ibuprofen (n=5-8) • 3. Group 3: phospho-ibuprofen (PI) (n=5-8) • 4. Group 4: phospho-ibuprofen-amide (PIA) (n=5-8)
# [3] = test system: BALB/c mice infected with HSV-1 KOS strain (PHN); conditions: second experiment; sulindac 5% gel on both hind paws 3x/day for three days
# Method: PHN was induced in mice by infecting them with the HSV-1 KOS strain virus and following established protocols (Ou et al, Front Immunol, 14, 1026269, 2023; Takasaki et al, Anesthesiology, 96 (5), 1168-74, 2002).
# ; Reckitt Benckiser). Three days later, HSV-1 (10^6 PFUs in 20 μl PBS) was inoculated on the shin of the right hind paw (5×5 mm) after scarification with sandpaper. The virus was applied directly to the scarified area. The contralateral hind paw was without inoculation. Mock infection was performed using the same virus inactivated by heating at 60° C. for 1 h.
# In a second experiment, the effect of the parent compound, sulindac, was tested in the same mouse model. Five days post-inoculation, sulindac (as a 5% gel), or vehicle control were administered topically onto both hind paws of mice three times a day for three days.
# PHN was induced in mice by infecting them with the HSV-1 KOS strain virus in line with the previous Examples.
# Five days post-inoculation, NO-sulindac (Formula XLIV) (as a 5% gel), or vehicle control were administered topically onto both hind paws of mice three times a day for three days.
smiles,measurement,setting,value
"CC1=C(CC(=O)O)c2cc(F)ccc2/C1=C\c1ccc([S+](C)[O-])cc1 (stereo not shown) [sulindac, reference compound]","PWL, sec Mean ± SEM",[1],7.87 ± 0.7 s
same,"PWT, g Mean ± SEM",[2]; Day 6,Day 6 = 0.6 ± 0.03 g
same,"PWT, g Mean ± SEM",[2]; Day 14,Day 14 = 0.6 ± 0.0 g
same,"PWT, g Mean ± SEM, Post-inoculation and treatment",[3],0.56 ± 0.06 g
